Read-outs that look alike come from different tables or passages of the source. Each block holds one molecule with its values, some of them ahead of it.
Columns and labels:
[1] = CD thermal transition; assay type: physicochemical; conditions: 25 °C, from thermal transition at 225 nm
[2] = test system: collagenolytic MMPs; conditions: in words, cited from earlier work
[3] = molecular target: MT1-MMP (Homo sapiens, UniProt P50281); conditions: cited from earlier work
[4] = molecular target: MMP-9 (Homo sapiens, UniProt P14780); conditions: cited from earlier work; for Ki: read-out: Ki(app) MMP-9
[5] = first generation THPI; cited from earlier work
[6] = molecular target: MMP-2 (Homo sapiens, UniProt P08253); conditions: cited from earlier work; for Ki: read-out: Ki(app) MMP-2
[7] = test system: wild-type mice subjected to CLP; conditions: cited from earlier work
[8] = test system: lung myeloperoxidase (MPO); conditions: cited from earlier work
[9] = test system: cytokines and chemokines; conditions: cited from earlier work
[10] = molecular target: T1, MMP-1 (Homo sapiens, UniProt P03956); conditions: in words; cited from earlier work
T1 sequence (P03956 100-469): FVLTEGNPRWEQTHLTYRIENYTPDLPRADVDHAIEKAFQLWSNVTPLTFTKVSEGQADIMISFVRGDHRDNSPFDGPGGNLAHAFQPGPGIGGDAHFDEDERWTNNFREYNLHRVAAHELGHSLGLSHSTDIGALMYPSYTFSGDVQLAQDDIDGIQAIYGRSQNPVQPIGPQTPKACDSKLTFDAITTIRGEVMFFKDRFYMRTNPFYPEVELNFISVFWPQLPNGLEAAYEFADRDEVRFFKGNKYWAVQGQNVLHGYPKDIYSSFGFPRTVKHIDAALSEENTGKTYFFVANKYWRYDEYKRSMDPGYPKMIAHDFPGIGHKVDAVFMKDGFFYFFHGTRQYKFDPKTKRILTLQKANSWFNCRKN

Chain of MMP-9 (P14780 107-444 limits assumed): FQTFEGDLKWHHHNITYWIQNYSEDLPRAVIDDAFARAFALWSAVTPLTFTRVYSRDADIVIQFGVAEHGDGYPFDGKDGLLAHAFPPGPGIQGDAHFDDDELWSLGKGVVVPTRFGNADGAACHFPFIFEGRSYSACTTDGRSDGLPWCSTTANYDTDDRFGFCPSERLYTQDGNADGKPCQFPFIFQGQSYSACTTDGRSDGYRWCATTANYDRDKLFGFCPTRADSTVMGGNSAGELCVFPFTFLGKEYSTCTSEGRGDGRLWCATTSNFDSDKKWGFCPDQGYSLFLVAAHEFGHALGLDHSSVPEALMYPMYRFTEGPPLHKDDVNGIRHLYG
Chain of MMP-2 (P08253 110-465 limits assumed): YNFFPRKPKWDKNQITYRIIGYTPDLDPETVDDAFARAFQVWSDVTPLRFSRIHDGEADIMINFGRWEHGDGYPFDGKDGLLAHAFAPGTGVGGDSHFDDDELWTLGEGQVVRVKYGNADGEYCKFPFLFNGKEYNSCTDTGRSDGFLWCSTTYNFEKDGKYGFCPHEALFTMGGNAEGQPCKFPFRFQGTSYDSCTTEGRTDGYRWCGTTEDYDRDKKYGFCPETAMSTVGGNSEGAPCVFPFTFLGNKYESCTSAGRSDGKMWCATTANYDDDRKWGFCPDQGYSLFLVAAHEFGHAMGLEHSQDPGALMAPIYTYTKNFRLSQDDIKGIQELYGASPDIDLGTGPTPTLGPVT

Molecule: C6-(Gly-Pro-Hyp)4-Gly-Pro-Pro-GlyΨ{PO2H-CH2}Val-Val-Gly-Glu-Gln-Gly-Glu-Gln-Gly-Pro-Pro-(Gly-Pro-Hyp)4-NH2 [C6-α1(V)GlyΨ{PO2H-CH2}Val THPI]
inhibition of MMPs [2]: low nanomolar range | inhibition of MT1-MMP [3]: did not inhibit MT1-MMP | inhibition of full-length (82 kDa) MMP-9 versus TIMP-1 resistant (65 kDa) MMP-9 ([4]; comparison in words): similar | Ki ([4]; 10 °C): 1.76 ± 0.05 nM | Ki ([4]; 37 °C): 1.29 nM | Tm [5]: 25 °C | Ki ([6]; 10 °C): 4.14 ± 0.47 nM | Ki ([6]; 37 °C): 19.2 ± 0.64 nM

Molecule: COc1ccc(S(=O)(=O)N2Cc3ccccc3C[C@@H]2C(=O)NO)cc1 [(3R)-(+) - [2-(4-methoxy-benzenesulfonyl)-1,2,3,4-tetrahydroisoquinoline-3-hydroxamate]]
survival of CLP mice [7]: improved survival | whole lung MPO activity in CLP mice [8]: reduced whole lung MPO activity | IL-1β in CLP mice [9]: significantly reduced | IL-6 in CLP mice [9]: significantly reduced | MIP-1α in CLP mice [9]: significantly reduced | TNF-α in CLP mice [9]: significantly reduced

Molecule: (Gly-Pro-Hyp)5-Gly-Arg-Ile-Gly-Phe~Leu-Asp-Pro-Gln-Gly-Val-Arg-(Gly-Pro-Hyp)5-Tyr-NH2 [FLDP]
% folded [1]: 72%

Molecule: (Gly-Pro-Hyp)4-Gly-mep-Flp-Gly-Pro-Gln-GlyΨ{PO2H-CH2}Leu-Ala-Gly-Gln-Arg-Gly-Ile-Arg-Gly-mep-Flp-(Gly-Pro-Hyp)4-Tyr-NH2 [α1(I-III)GlyΨ{PO2H-CH2}Leu THPI]
selectivity toward collagenolytic MMPs ([2]; first generation): selective toward collagenolytic MMPs | inhibition of MMPs [2]: low nanomolar range | Ki ([3]; read-out: Ki MT1-MMP): 120 nM | inhibition of MMP-9 ([4]; in words): effectively inhibits | inhibition of MMP-1 [10]: effectively inhibits | inhibition of MMP-2 ([6]; in words): effectively inhibits

Now from value to molecule:

% folded [1]: 79%
Molecule: (Gly-Pro-Hyp)5-Gly-Arg-Ile-Gly-Phe~Leu-Arg-Thr-Gln-Gly-Val-Arg-(Gly-Pro-Hyp)5-Tyr-NH2 [FLRT]

% folded [1]: 92%
Molecule: (Gly-Pro-Hyp)6-Gly-Pro-Gln-Gly~Val-Ser-Trp-Gln-Arg-Gly-Val-Arg-(Gly-Pro-Hyp)5-NH2 [VSW]

% folded [1]: 88%
Molecule: (Gly-Pro-Hyp)6-Gly-Pro-Gln-Gly~Ile-Tyr-Phe-Gln-Arg-Gly-Val-Arg-(Gly-Pro-Hyp)5-NH2 [IYF]

% folded [1]: 87%
Molecule: (Gly-Pro-Hyp)6-Gly-Pro-Gln-Gly~Val-Gln-His-Gln-Arg-Gly-Val-Arg-(Gly-Pro-Hyp)5-NH2 [VQH]

% folded [1]: 83%
Molecule: (Gly-Pro-Hyp)6-Gly-Pro-Gln-Gly~Ile-His-Lys-Gln-Arg-Gly-Val-Arg-(Gly-Pro-Hyp)5-NH2 [IHK]

% folded [1]: 72%
Molecule: (Gly-Pro-Hyp)5-Gly-Arg-Ile-Gly-His~Leu-Arg-Thr-Gln-Gly-Val-Arg-(Gly-Pro-Hyp)5-Tyr-NH2 [HLRT]
